# Measured values taken from patent publication EP1568690A1, “The use of carbocyclic and heterocyclic substituted semicarbazones and thiosemicarbazones as sodium channel blockers” (Euro-Celtique S.A., priority 1997, dated 1998).
# Read-outs that look alike come from different tables or passages of the source.
# Tests used:
# [1] = test system: maximal electroshock-induced seizures (MES); test: Maximal electroshock-induced seizure (MES) test; assay type: in vivo; conditions: mice; for ED50: Mus musculus, po, 0.5 h; for MES (ED50 mg/kg): 30 min
# Method: Mice were restrained by gripping the loose skin on their dorsal surface and saline-coated corneal electrodes were held lightly against the two cornea. […] A tonic seizure was defined as a hindlimb extension in excess of 90 degrees from plane of the body.
# 4-(3,4-Methylenedioxyphenoxy)benzaldehyde semicarbazone was administered orally to mice 30 min before the test procedure. […]
# [2] = test system: voltage-sensitive Na^+ channels; test: Electrophysiological assay: whole-cell patch-clamp of Na^+ currents in acutely dissociated hippocampal neurons; assay type: cell-based, rat
# Method: Cell preparation: Acute cultures of rat hippocampal neurons were prepared daily using a modification of procedures described previously (Kuo and Bean, Mol. Pharm. 46:716-725 (1994)). Briefly, hippocampi were isolated from 3-11 day old rat pup brains (Sprague-Dawley; Charles River) and were sectioned, by hand, into 0.5 - 1 mm thick transverse slices (Whittemore and Koerner, Eur. J. Pharm. 192:435-438 (1991)). Slices were incubated for at least 30 min at room temperature (20 - 24 °C) in an oxygenated medium (124 mM NaCl, 3.3 mM KCl, 2.4 mM MgSO4, 2.5 mM CaCl2, 1.2 mM KH2PO4, 26 mM NaHCO3, pH = 7.4) continuously bubbled with 5% CO2 / 95 % O2. […]
# Patch-clamp recordings of voltage-sensitive Na^+ currents: Whole-cell voltage-clamp recordings were made using conventional patch-clamp technique (Hamill et al., Pfluegers Arch. 391:85-100 (1981)) with an Axopatch 200A amplifier (Axon Instruments, Foster City, CA). […] Currents were recorded at room temperature (22-25°C), filtered at 5 kHz with 4-pole Bessel filter, digitized at 20-50-µs intervals, and stored using Digidata 1200 analog/digital interface with Pclamp6/Clampex software (Axon Instruments). […] The inhibitory potency of drugs was assessed by measuring reductions in the peak amplitude of Na^+ currents induced by increasing concentrations of compounds tested. […]
# [3] = test system: Na^+ channel Site 1; assay type: binding; conditions: [^3H] saxitoxin, rat forebrain membranes
# [4] = test system: Na^+ channel Site 2; assay type: binding; conditions: [^3H] batrachotoxin, rat forebrain membranes
# [5] = test system: formalin test in mice; test: Formalin test (antinociceptive activity, time licking/biting injected paw); assay type: in vivo; conditions: Mus musculus
# Method: Analgesic activity of 4-(4-fluorophenoxy)benzaldehyde semicarbazone was assessed in the formalin test. The method of Hunskaar, et al., J. Neurosci. Method 14:69-76 (1985), was used with some modifications as described in the following.
# Mice were placed in Plexiglas jars for at least 1 h to accommodate to experimental conditions. Following the accommodation period, mice were weighed and injected with 4-(4-Fluorophenoxy)benzaldehyde semicarbazone by i.p. or p.o. administration. Control mice were injected with saline (10 ml/kg). Fifteen min (i.p.) or 30 min (p.o.) following 4-(4-fluorophenoxy)benzaldehyde semicarbazone administration mice were injected with formalin ([…] of 5% formaldehyde solution in saline) into the dorsal surface of the right hand paw. Mice were immediately transferred to the Plexiglas jars and the amount of time that each mouse spent licking and/or biting the injected paw was recorded for every 5-min period over the 1 h observation period. The data presented here are at 0-5 min (early phase) and from 5-60 min (late phase) following formalin injections. The late phase of the formalin test is the average of eleven 5-min periods.
# The compound has a potency of ED50 about 5-10 mg/kg by both routes of administration.
# [6] = determined as described in example 38, read-out: MES (ED50 mg/kg)
# [7] = determined as described in example 38
molecule,measurement,setting,value
"NC(=O)NN=Cc1ccc(Oc2ccc3c(c2)OCO3)cc1 [4-(3,4-methylenedioxyphenoxy)benzaldehyde semicarbazone]",ED50,"[1]; read-out: ED50 (the dose provided protection of 50% of animals), administered orally 30 min before the test",5.3 mg/kg
same,ED50,[1]; [6],3.4 mg/kg
CN(N=Cc1ccc(Oc2ccc(F)cc2)c(F)c1)C(N)=O [4-(4-Fluorophenoxy)-3-fluorobenzaldehyde 2'-methylsemicarbazone],ED50,[1]; [6],0.9 mg/kg
4-(4-fluorophenyl)benzaldehyde 2'-methylsemicarbazone,MES (ED50 mg/kg),[1]; [7],1.5 mg/kg
NC(=O)NN=Cc1ccc(-c2ccc(F)cc2)c(F)c1 [3-fluoro-4-(4-fluorophenyl)benzaldehyde semicarbazone],ED50,[1]; [6],3 mg/kg
NC(=O)NN=Cc1ccc(Oc2ccc(F)cc2)cc1 [4-(4-fluorophenoxy)benzaldehyde semicarbazone],effect on Na^+ currents,"[2]; concentrations between 0.1 - 10 µM, holding membrane voltage of -100 mV",very little effect
same,Kd,"[2]; for inactivated Na^+ channels, read-out: apparent antagonist dissociation constant (Kd)",~0.6 µM
same,IC50,[3],> 100 µM
same,IC50,[4],22 µM
same,ED50,"[5]; ip, 0.25 h, i.p., formalin 15 min after administration",5 to 10 mg/kg
same,ED50,"[5]; po, 0.5 h, p.o., formalin 30 min after administration",5 to 10 mg/kg
same,ED50,[1]; [6],1.6 mg/kg
"CCN(CC)CC(=O)Nc1c(C)cccc1C [Lidocaine, reference compound]",IC50,[3],> 100 µM
same,IC50,[4],29.9 µM
"NC(=O)NN=Cc1ccc(OC2CCCCCC2)cc1 [4-cycloheptoxybenzaldehyde semicabazone, 4-Cycloheptyloxybenzaldehyde semicarbazone]",ED50,[1]; [6],3.2 mg/kg
CN(NCc1ccc(Oc2ccc(F)cc2)cc1)C(N)=O [2'-methyl-4-(4-flourophenoxy)phenylmethylsemicarbazide],ED50,[1]; [6],3.2 mg/kg
"NC(=O)NN=Cc1ccc(Oc2ccc3c(c2)CCC3)cc1 [4-(5-indanoxy)benzaldehyde semicarbazone, 4-(5-Indanoxy)benzaldehyde semicarbazone]",ED50,[1]; [6],1.7 mg/kg
CCCCOc1ccc(Oc2ccc(C=NNC(N)=O)cc2)cc1 [4-(4-butoxyphenoxy)benzaldehyde semicarbazone],ED50,[1]; [6],14.9 mg/kg
NC(=O)NNCc1ccc(Oc2ccc(F)cc2)cc1 [4-(4-fluorophenoxy)phenylmethylsemicarbazide],MES (ED50 mg/kg),[1]; [7],4.2 mg/kg
